# Results: US10149809B2, “Skin aging inhibitor and concentrate of resveratrol 3-O-α-glucoside” (priority 2014, dated 2018)
# Legend:
# [1] = Solubility in solvent containing 1,2-pentanediol; type: physicochemical
# Experimental: (§1) Approximately 40 mg each of resveratrol 3-O-α-glucoside, resveratrol (Tokyo Chemical Industry Co., Ltd.), and resveratrol 3-O-β-glucoside (Tokyo Chemical Industry Co., Ltd.) was weighed, approximately 70 mg of a solvent (whose composition is shown in Table 18) containing ethanol (Wako Pure Chemical Industries, Ltd.) was added thereto, and the mixture was soaked in a water bath at 25° C. under light-tight conditions, and incubated for 15 hours with occasional stirring. After 15 hours, each of the samples was filtered through a 0.45 μm centrifugal filter, and then the concentration of each of the components in the filtrate was analyzed using HPLC under the same conditions as those described in Production Example 1 above. The dissolved concentration (w/v %) at 25° C. was thus determined.
# The solubility of resveratrol 3-O-α-glucoside was evaluated under the same conditions as those described in Example 18 above, except that a solvent (whose composition is shown in Table 23) containing 1,2-pentanediol (Kankosha Co., Ltd.) was used.
# IL-1β gene = assay: Reduction of inflammation through pretreatment: IL-1β gene expression, Poly I:C; type: cell-based; details: normal human epidermal keratinocytes, pretreatment 0.001 wt % 24 hours, then Poly I:C 1 μg/mL 9 hours; control = 100%, comparative group 871
# Experimental: Normal human epidermal keratinocytes were seeded into 12-well culture plates at 5×10^4 cells per well. As the medium, EpiLife KG-2 medium (basal medium) supplemented with insulin, hEGF, hydrocortisone, anti-microbial agents, and BPE was used, and the cells were preincubated in 5% CO2 at 37° C. for 48 hours. Further, the cells were incubated for additional 24 hours in a medium obtained by removing hydrocortisone only from the basal medium (assay medium). Next, the medium was replaced with a sample medium obtained by supplementing the assay medium with resveratrol 3-O-α-glucoside to a concentration of 0.001 wt %, the cells were cultured in 5% CO2 at 37° C. for 24 hours, and the cultured cells were pretreated with resveratrol 3-O-α-glucoside. […] After the medium was removed and the cells were washed with PBS, total RNA was extracted from the cells, and the level of expression of the proinflammatory cytokine IL-1β gene was quantified by real time PCR. […]
# Taking as 100% the level of expression of the IL-1β gene for the control group, a relative ratio of the expression level of the IL-1β gene for each of the comparative group and the resveratrol 3-O-α-glucoside-supplemented group (IL-1β gene expression ratio, %) was calculated. […]
# [2] = test system: matrix metalloproteinase 9 (MMP9) gene; assay: MMP9 gene expression in the epidermis (three-dimensional human skin model); type: cell-based; details: 100 μL, 8 hours, distilled water control = 100%
# Experimental: Using a three-dimensional human skin model, the effect of resveratrol 3-O-α-glucoside on the matrix metalloproteinase 9 (MMP9) gene expression in the epidermis was investigated.
# An aqueous solution containing resveratrol 3-O-α-glucoside at a concentration of 0.02 or 0.1 wt %, or containing resveratrol 3-O-β-glucoside at a concentration of 0.02 wt % was prepared, and the resulting solution was used as a sample solution. One-hundred microliters of the sample solution were administered to the horny layer side of the human skin model (EpiDerm EPI-200; MatTek), and cultured in 5 mL of a special medium (EPI-100-ASY) at 37° C. for 8 hours. After the culture, total RNA was extracted from the skin model, and the level of expression of the MMP9 gene was quantified by real time PCR. As a control group, distilled water was administered to a skin model instead of the sample solution, and total RNA collected from the skin model was used.
# Taking as 100% the level of expression of the MMP9 gene for the control group, a relative ratio of the expression level of the MMP9 gene for the resveratrol 3-O-α-glucoside- or resveratrol 3-O-β-glucoside-supplemented group (MMP9 gene expression ratio, %) was determined. In the measurement of the expression level of the MMP9 gene, PPIA was used for internal standard correction.
# Solubility in water = type: physicochemical
# Experimental: as §1, with “5” for “40”, “1 mL” for “70 mg”, “water” for “a solvent (whose composition is shown in Table 18) containing ethanol (Wako Pure Chemical Industries, Ltd.)”, “20” for “15”, “%) in water” for “%)”
# [3] = Solubility in solvent containing ethanol; type: physicochemical
# Experimental: as §1
# [4] = Solubility in solvent containing glycerol; type: physicochemical
# Experimental: as §1
# The solubility of resveratrol 3-O-α-glucoside was evaluated under the same conditions as those described in Example 18 above, except that a solvent (whose composition is shown in Table 19) containing glycerol (Wako Pure Chemical Industries, Ltd.) was used.
# [5] = Solubility in solvent containing dipropylene glycol; type: physicochemical
# Experimental: as §1
# The solubility of resveratrol 3-O-α-glucoside was evaluated under the same conditions as those described in Example 18 above, except that a solvent (whose composition is shown in Table 22) containing dipropylene glycol (Asahi Glass Co., Ltd.) was used.
# [6] = EpiDerm EPI-200, 0.02 wt % aqueous solution
compound,measurement,setting,value
"OC[C@H]1O[C@H](Oc2cc(O)cc(C=Cc3ccc(O)cc3)c2)[C@H](O)[C@@H](O)[C@@H]1O [Resveratrol 3-O-α-Glucoside, resveratrol 3-O-α-glucoside]",dissolved concentration,[1],exceeded 20 w/v %
same,IL-1β Gene Expression Ratio (%),IL-1β gene,697%
same,MMP9 Gene Expression Ratio (%),[2]; [6],85%
same,MMP9 Gene Expression Ratio (%),"[2]; EpiDerm EPI-200, 0.1 wt % aqueous solution",66%
same,Dissolved Concentration (μg/mL) in Water,Solubility in water; 20 h,2900 µg/mL
same,dissolved concentration,[3],exceeded 30 w/v %
same,Dissolved Concentration (w/v %) at 25° C.,[3]; 15 h,0.3 w/v %
same,dissolved concentration,[4],exceeded 20 w/v %
same,dissolved concentration,[5],exceeded 30 w/v %
"OC[C@H]1O[C@@H](Oc2cc(O)cc(/C=C/c3ccc(O)cc3)c2)[C@H](O)[C@@H](O)[C@@H]1O [Resveratrol 3-O-β-Glucoside, resveratrol 3-O-β-glucoside]",Dissolved Concentration (w/v %) at 25° C.,"[1]; 1,2-Pentanediol:Water 0:100 (weight ratio)",0.04 w/v %
same,Dissolved Concentration (w/v %) at 25° C.,"[1]; 1,2-Pentanediol:Water 10:90 (weight ratio)",0.2 w/v %
same,Dissolved Concentration (w/v %) at 25° C.,"[1]; 1,2-Pentanediol:Water 25:75 (weight ratio)",2.3 w/v %
same,Dissolved Concentration (w/v %) at 25° C.,"[1]; 1,2-Pentanediol:Water 50:50 (weight ratio)",7.5 w/v %
same,Dissolved Concentration (w/v %) at 25° C.,"[1]; 1,2-Pentanediol:Water 75:25 (weight ratio)",11.3 w/v %
same,Dissolved Concentration (w/v %) at 25° C.,"[1]; 1,2-Pentanediol:Water 90:10 (weight ratio)",9.4 w/v %
same,Dissolved Concentration (w/v %) at 25° C.,"[1]; 1,2-Pentanediol:Water 100:0 (weight ratio)",4.6 w/v %
same,MMP9 Gene Expression Ratio (%),[2]; [6],124%
same,Dissolved Concentration (μg/mL) in Water,"Solubility in water; water, 25° C., 20 hours",370 µg/mL
same,Dissolved Concentration (w/v %) at 25° C.,"[3]; Ethanol:Water 0:100 (weight ratio), 15 hours",0.04 w/v %
same,Dissolved Concentration (w/v %) at 25° C.,"[3]; Ethanol:Water 5:95 (weight ratio), 15 hours",0.05 w/v %
same,Dissolved Concentration (w/v %) at 25° C.,"[3]; Ethanol:Water 10:90 (weight ratio), 15 hours",0.06 w/v %
same,Dissolved Concentration (w/v %) at 25° C.,"[3]; Ethanol:Water 15:85 (weight ratio), 15 hours",0.1 w/v %
same,Dissolved Concentration (w/v %) at 25° C.,"[3]; Ethanol:Water 20:80 (weight ratio), 15 hours",0.2 w/v %
same,Dissolved Concentration (w/v %) at 25° C.,"[3]; Ethanol:Water 25:75 (weight ratio), 15 hours",0.4 w/v %
same,Dissolved Concentration (w/v %) at 25° C.,"[3]; Ethanol:Water 30:70 (weight ratio), 15 hours",0.7 w/v %
same,Dissolved Concentration (w/v %) at 25° C.,"[3]; Ethanol:Water 40:60 (weight ratio), 15 hours",2.6 w/v %
same,Dissolved Concentration (w/v %) at 25° C.,"[3]; Ethanol:Water 50:50 (weight ratio), 15 hours",5.3 w/v %
same,Dissolved Concentration (w/v %) at 25° C.,"[3]; Ethanol:Water 75:25 (weight ratio), 15 hours",13.8 w/v %
same,Dissolved Concentration (w/v %) at 25° C.,"[3]; Ethanol:Water 90:10 (weight ratio), 15 hours",7.3 w/v %
same,Dissolved Concentration (w/v %) at 25° C.,"[3]; Ethanol:Water 100:0 (weight ratio), 15 hours",2.4 w/v %
same,Dissolved Concentration (w/v %) at 25° C.,[4]; Glycerol:Water 0:100 (weight ratio),0.04 w/v %
same,Dissolved Concentration (w/v %) at 25° C.,[4]; Glycerol:Water 10:90 (weight ratio),0.05 w/v %
same,Dissolved Concentration (w/v %) at 25° C.,[4]; Glycerol:Water 25:75 (weight ratio),0.09 w/v %
same,Dissolved Concentration (w/v %) at 25° C.,[4]; Glycerol:Water 50:50 (weight ratio),0.3 w/v %
same,Dissolved Concentration (w/v %) at 25° C.,[4]; Glycerol:Water 75:25 (weight ratio),1.1 w/v %
same,Dissolved Concentration (w/v %) at 25° C.,[4]; Glycerol:Water 90:10 (weight ratio),1.9 w/v %
same,Dissolved Concentration (w/v %) at 25° C.,[4]; Glycerol:Water 100:0 (weight ratio),3.1 w/v %
same,Dissolved Concentration (w/v %) at 25° C.,[5]; Dipropylene Glycol:Water 0:100 (weight ratio),0.04 w/v %
same,Dissolved Concentration (w/v %) at 25° C.,[5]; Dipropylene Glycol:Water 5:95 (weight ratio),0.06 w/v %
same,Dissolved Concentration (w/v %) at 25° C.,[5]; Dipropylene Glycol:Water 10:90 (weight ratio),0.1 w/v %
same,Dissolved Concentration (w/v %) at 25° C.,[5]; Dipropylene Glycol:Water 15:85 (weight ratio),0.3 w/v %
same,Dissolved Concentration (w/v %) at 25° C.,[5]; Dipropylene Glycol:Water 20:80 (weight ratio),0.5 w/v %
same,Dissolved Concentration (w/v %) at 25° C.,[5]; Dipropylene Glycol:Water 25:75 (weight ratio),0.9 w/v %
same,Dissolved Concentration (w/v %) at 25° C.,[5]; Dipropylene Glycol:Water 50:50 (weight ratio),11.5 w/v %
same,Dissolved Concentration (w/v %) at 25° C.,[5]; Dipropylene Glycol:Water 75:25 (weight ratio),26.1 w/v %
same,Dissolved Concentration (w/v %) at 25° C.,[5]; Dipropylene Glycol:Water 90:10 (weight ratio),23.9 w/v %
same,Dissolved Concentration (w/v %) at 25° C.,[5]; Dipropylene Glycol:Water 100:0 (weight ratio),15.0 w/v %
